PubChem BioAssay (NCI)
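Five compound concentrations were applied to cells in 96-well plates for 48 hours; endpoints were derived by simple linear interpolation of the resulting dose-response curve. Here, GI50 denotes the concentration required for 50% inhibition of growth. TGI denotes the concentration required for complete inhibition of growth.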 Where a SMILES comes first, the peptide text is derived from it. The star is where a group is joined. Boc = CC(C)(C)OC(=O)*

Experiments:
Test in all cases: NCI tumour cell line growth inhibition, 48 h
CAKI-1 renal = test system: CAKI-1 renal
SNB-19 CNS = test system: SNB-19 CNS
K-562 leukemia = test system: K-562 leukemia
LOX IMVI melanoma = test system: LOX IMVI melanoma
RXF 393 renal = test system: RXF 393 renal
KM12 colon = test system: KM12 colon
HT29 colon = test system: HT29 colon
OVCAR-3 ovarian = test system: OVCAR-3 ovarian
NCI-H23 lung = test system: NCI-H23 lung
UACC-257 melanoma = test system: UACC-257 melanoma

Structure (SMILES) | TGI (CAKI-1 renal) | TGI (SNB-19 CNS) | TGI (K-562 leukemia) | TGI (LOX IMVI melanoma) | TGI (RXF 393 renal) | TGI (KM12 colon) | TGI (HT29 colon) | TGI (OVCAR-3 ovarian) | TGI (NCI-H23 lung) | TGI (UACC-257 melanoma) | GI50 (UACC-257 melanoma) | GI50 (CAKI-1 renal) | GI50 (SNB-19 CNS) | GI50 (K-562 leukemia) | GI50 (LOX IMVI melanoma) | GI50 (KM12 colon) | GI50 (OVCAR-3 ovarian) | GI50 (NCI-H23 lung)
CN(C)CCOc1ccc(-c2c(Oc3ccc(Cl)cc3)c(=O)oc3ccccc23)cc1 | 39.6 µM | > 46 µM | > 60 µM | > 35.7 µM | > 48.3 µM | 48.1 µM | > 38.7 µM | 34.3 µM | 34.8 µM |  |  |  |  |  |  |  |  | 
CC1=C(C#N)S(=O)(=O)c2c(oc(C)c2C)N1 | > 100 µM | > 100 µM | > 100 µM | > 100 µM |  | > 100 µM | > 100 µM | > 100 µM | > 100 µM | > 100 µM |  |  |  |  |  |  |  | 
O=c1[nH]cnc2c1ncn2[C@H]1CO[C@@H](CO)[C@@H]1O | > 100 µM |  | > 100 µM | > 100 µM | > 100 µM | > 100 µM | > 100 µM | > 100 µM | > 100 µM | > 100 µM |  |  |  |  |  |  |  | 
COc1ccc(-c2cn3ccnc3c(-c3ccc4ncn(C5CCCCC5)c4c3)n2)cc1 | > 100 µM | > 100 µM | > 100 µM | > 100 µM |  | > 100 µM |  | > 100 µM | > 100 µM | > 100 µM | > 100 µM | 757 nM | 836 nM | 422 nM | 740 nM | 1350 nM | 411 nM | 2110 nM
Brc1ccc2c(c1)C1=C(CO2)Cc2ccccc2O1 | 32.3 µM |  | > 100 µM | 31.1 µM |  | 37.2 µM | 62.8 µM | 31.8 µM | 32.5 µM | 32.6 µM |  |  |  |  |  |  |  | 
Nc1cc(CO)cc(Nc2c3ccccc3nc3occc23)c1 | 94.9 µM | > 100 µM |  | > 100 µM |  | > 100 µM | 30.5 µM | > 100 µM | 71.7 µM | > 100 µM |  |  |  |  |  |  |  | 
CC(=O)Nc1ccc(Nc2nc(=O)[nH]c(=O)[nH]2)cc1 | > 100 µM | > 100 µM |  | > 100 µM |  | > 100 µM | > 100 µM | > 100 µM | > 100 µM | > 100 µM |  |  |  |  |  |  |  | 
Cc1nnc2c3c(-c4ccccc4)c(-c4ccccc4)oc3nc(N(C)C)n12 | > 100 µM | > 100 µM | > 100 µM | > 100 µM | > 100 µM | > 100 µM | > 100 µM |  | > 100 µM | > 100 µM |  |  |  |  |  |  |  | 
CC(NC(=O)C(NC(=O)OC(C)(C)C)C(C)C)C(=O)NCC(=O)O (stereo not drawn) (Boc-Val-Ala-Gly-OH; configuration not given here) | > 100 µM | > 100 µM | > 100 µM |  | > 100 µM | > 100 µM | > 100 µM | > 100 µM | > 100 µM | > 100 µM |  |  |  |  |  |  |  | 
COc1ccc(CNc2nc3ccccc3nc2-c2cccs2)cc1 | 46.3 µM |  | > 100 µM | 43.7 µM | > 100 µM | > 100 µM | > 100 µM | > 100 µM | > 100 µM | > 100 µM |  |  |  |  |  |  |  | 
Cc1cc2ccccc2c[n+]1CC(=O)CC([O-])(C(F)(F)F)C(F)(F)F | > 100 µM | > 100 µM | > 100 µM | > 100 µM | > 100 µM |  | > 100 µM | > 100 µM | > 100 µM | > 100 µM |  |  |  |  |  |  |  | 
O=S1(=O)c2ccccc2N2CCCc3cc(Cl)cc1c32 | > 100 µM | > 100 µM | > 100 µM | > 100 µM | 51.3 µM | > 100 µM | > 100 µM | > 100 µM |  | > 100 µM |  |  |  |  |  |  |  | 
CCCCCC(C)C[C@H]1CO[C@H](c2ccc[nH]2)N[C@H]1C(=O)OC (stereo not given in full) | > 100 µM | > 100 µM |  | > 100 µM | > 100 µM | > 100 µM | > 100 µM | > 100 µM | > 100 µM | > 100 µM |  |  |  |  |  |  |  | 
Cc1nc2c(Br)cc(Br)cc2c(=O)n1-c1ccccc1N | 96.2 µM | > 100 µM | > 100 µM | > 100 µM |  | > 100 µM | 65.4 µM | > 100 µM |  | 86.5 µM |  |  |  |  |  |  |  | 
O=C(CCCC(=O)N1CC(CCl)c2ccc([N+](=O)[O-])cc21)N1CC(CCl)c2ccc([N+](=O)[O-])cc21 (stereo not given) | > 100 µM | > 100 µM | > 100 µM | > 100 µM | > 100 µM |  | > 100 µM | > 100 µM | > 100 µM | > 100 µM |  |  |  |  |  |  |  | 
CC(NC(=O)c1ccc(OP(=O)(OCC2=CC(=O)c3ccccc3C2=O)N(C)CCCCCl)cc1)c1ccc(OCC2CCCCC2)c(C(N)=O)c1 (stereo not given) | 35.5 µM | 35.1 µM | 43.1 µM | 17.6 µM |  | 30.3 µM | 31.2 µM | 17.4 µM | 10.2 µM | 18.6 µM |  |  |  |  |  |  |  | 
CC(Nc1cc(Cl)cc(Cl)c1)c1ccncc1 (stereo not given) | 52.4 µM | > 100 µM | > 100 µM | 24.8 µM | 71.3 µM |  | 88.8 µM | 35.7 µM | 71.1 µM | 58.6 µM |  |  |  |  |  |  |  | 
COC1CCC(OC2CC(C3(C)CCC4(CC(O)C(C)C(C(C)/C=C(\C)C(=O)C(C)CC(C)C(=O)O)O4)O3)OC3(OC(C4OC(O)(CO)C(C)CC4C)CC3C)C2C)OC1C (stereo not given) | 2.21 µM | 0.355 µM |  | 0.941 µM | 0.225 µM | 1.31 µM | 2.19 µM | 2.58 µM | 1.13 µM | 1.52 µM |  |  |  |  |  |  |  | 
N#CC(c1ccccc1)c1cccc2ccccc12 (stereo not given) | 52.1 µM | > 100 µM | > 100 µM | 50.8 µM |  | 66 µM | > 100 µM | 86.6 µM | > 100 µM | 67.3 µM |  |  |  |  |  |  |  | 
COc1ccc(CN=CN/C(C#N)=C(\N)C#N)cc1OC | > 100 µM | > 100 µM | > 100 µM | > 100 µM |  | > 100 µM | > 100 µM | > 100 µM | > 100 µM | > 100 µM |  |  |  |  |  |  |  | 
Clc1ccc(OCc2nnc(CCCCCCCCc3nnc(COc4ccc(Cl)cc4Cl)o3)o2)c(Cl)c1 | 53.4 µM | > 100 µM | > 100 µM |  | > 100 µM | > 100 µM | > 100 µM |  | > 100 µM | > 100 µM |  |  |  |  |  |  |  | 
C=C1CCCCCCCCCCC1S(=O)c1ccccc1 (stereo not given) | > 100 µM | > 100 µM | 82.6 µM | 91.3 µM | 64.5 µM |  | > 100 µM | > 100 µM | > 100 µM | > 100 µM |  |  |  |  |  |  |  | 
